Results as given in US20240131036A1, “COMPOSITIONS AND METHODS OF TREATING CONDITIONS” (priority 2020, published 2024).
Like-named read-outs stand apart in the source and are kept apart here.

Key:
human epithelial cells = experiment: Gene Set Enrichment Analysis (GSEA) of microarray data (GSE117351), antiviral pathways; format: cell-based; design: key: ^..: the effect is absent
[1] = very high doses (3-60 μg/kg); cited from earlier work
SARS-CoV-2 RdRP = SARS-CoV-2 RdRP (Severe acute respiratory syndrome coronavirus 2 (2019-nCoV) (SARS-CoV-2), UniProt P0DTD1); experiment: Enzymatic assay for RdRP (AlphaScreen, BPS Biosciences); format: biochemical
Protocol: Min=negative control without any enzyme (0% enzyme activity), Max=positive control with enzyme and substrate (100% enzyme activity). […] The statistical significance of differences was evaluated by one-way ANOVA, *p<0.05, **p<0.01, ***p<0.001, for all conditions relative to the ethanol blank, n=3. […] Min=negative control without any enzyme (0% enzyme activity), Max=positive control with enzyme and substrate (100% enzyme activity). The statistical significance of differences was evaluated by one-way ANOVA, *p<0.05, **p<0.01, ***p<0.001, for all conditions relative to the ethanol blank, n=3
The assay for RdRP activity was outsourced to BPS Biosciences ([…], California, USA) using the following protocol. […] The RdRP reactions were performed in triplicate at 37° C. for 60 min in a 10 μl mixture containing assay buffer, RNA duplex, ATP substrate and enzyme, and the test compound. The reactions were carried out in wells of 384-well Optiplate (PerkinElmer). After enzymatic reactions, 10 μl of anti-Dig Acceptor beads (PerkinElmer, diluted 1:500 with lx detection buffer) were added to the reaction mix. After brief shaking, the plate was incubated for 30 min. […] The values of % activity versus the concentrations of the compound tested were then plotted using non-linear regression analysis of a Sigmoidal dose-response curve generated with the equation Y=B+(T−B)/1+10^((LogEC50−X)×Hill Slope), where Y=percent activity, B=minimum percent activity, T=maximum percent activity, X=logarithm of compound and Hill Slope=slope factor or Hill coefficient. The IC50 value was determined as the concentration causing half-maximal activity.

[2] = target: SARS-CoV-2 3CL^Pro (M^pro) (Severe acute respiratory syndrome coronavirus 2 (2019-nCoV) (SARS-CoV-2), UniProt P0DTD1); experiment: Enzymatic assay for M^pro (3CL Protease, MBP-tagged assay kit); format: biochemical; conditions: for inhibition at 0.2 µM: 2×10^−7 M, read-out: M^pro enzyme inhibition
Protocol: FIG. 1.3A and 1.3B illustrate the enzyme inhibition by the selected sterols and secosteroids. […] Min=negative control without any enzyme (0% enzyme activity), Max=positive control with enzyme and substrate (100% enzyme activity). […] The statistical significance of differences was evaluated by one-way ANOVA, *p<0.05, **p<0.01, ***p<0.001, for all conditions relative to the ethanol blank, n=3. FIG. 1.3B illustrates the RdRP enzyme activity inhibition by selected sterols and secosteroids. […] Min=negative control without any enzyme (0% enzyme activity), Max=positive control with enzyme and substrate (100% enzyme activity). The statistical significance of differences was evaluated by one-way ANOVA, *p<0.05, **p<0.01, ***p<0.001, for all conditions relative to the ethanol blank, n=3
The SARS-CoV-2 3CL^Pro (M^pro), MBP-tagged Assay Kit (BPS Biosciences, San Diego, CA, USA) was used to measure 3CL Protease (M^pro) activity for screening and profiling applications. The 3CL inhibitor GC376 was included as a positive control and also used as a standard. The assay was performed according to the protocol provided by the manufacturer with the concentration of compounds tested being 10^−7 M.

[3] = pathway: Host Interactions with HIV factors
[4] = pathway: Host Interactions with Influenza Factors
[5] = pathway: Influenza Viral RNA Transcription & Replication
[6] = read-out: IC50 for inhibition of the enzyme activity of RdRP

C=C1/C(=C\C=C2/CCC[C@]3(C)[C@@H]([C@H](C)CCCC(C)(C)O)CC[C@@H]23)C[C@@H](O)C[C@@H]1O [1,25(OH)2D3, (3S,5Z,7E)-9,10-secocholesta-5,7,10(19)-trien-1,3,25-triol, reference compound]
GSEA Direction (human epithelial cells): ^.. | GSEA NES (Normalized Enriched Score) (human epithelial cells): ^.. | GSEA NES (Normalized Enriched Score) (human epithelial cells; pathway: HIV Life Cycle): −2.503 | GSEA Direction (human epithelial cells; [3]): ^.. | GSEA NES (Normalized Enriched Score) (human epithelial cells; [3]): ^.. | GSEA Direction (human epithelial cells; [4]): ^.. | GSEA NES (Normalized Enriched Score) (human epithelial cells; [4]): ^.. | GSEA Direction (human epithelial cells; [5]): ^.. | GSEA NES (Normalized Enriched Score) (human epithelial cells; [5]): ^.. | GSEA NES (Normalized Enriched Score) (human epithelial cells; pathway: Late Phase of HIV Life Cycle): −2.658 | GSEA NES (Normalized Enriched Score) (human epithelial cells; pathway: Viral Messenger RNA Synthesis): −2.405 | GSEA NES (Normalized Enriched Score) (human epithelial cells; pathway: Viral mRNA Translation): −3.601 | toxicity and calcemic activity [1]: calcemic

C=C1CCC(O)CC1=CC=C1CCCC2(C)C1CCC2C(C)(O)C=CC(C)C(C)C (stereo not shown) [20(OH)D2, 20-hydroxyvitamin D2]
toxicity and calcemic activity [1]: not toxic and non-calcemic

CC(C)CCC[C@](C)(O)[C@H]1CC[C@H]2C3=CC=C4C[C@@H](O)CC[C@]4(C)[C@H]3CC[C@@]21C [20S(OH)7DHC, Cholesta-5,7-dien-3β,20-diol]
IC50 (SARS-CoV-2 RdRP; [6]): 4700 nM | inhibition at 0.2 µM [2]: 10 to 19%

C=C1CC[C@H](O)C/C1=C/C=C1\CCC[C@@]2(C)[C@H]1CC[C@@H]2[C@@](C)(O)CCCC(C)C [20S(OH)D3, (3S,5Z,7E)-9,10-secocholesta-5,7,10(19)-trien-3,20-diol]
IC50 (SARS-CoV-2 RdRP): 2600 nM

CC(C)CCC[C@](C)(O)[C@H]1CC[C@H]2C3=CC=C4C[C@@H](O)CC[C@@]4(C)[C@@H]3CC[C@@]21C [20S(OH)L3, 9β,10α-cholesta-5,7-diene-3β,20-diol]
IC50 (SARS-CoV-2 RdRP; [6]): 1000 nM

CC(C)[C@@H](O)CC[C@@H](C)[C@H]1CC[C@H]2C3=CC=C4C[C@@H](O)CC[C@@]4(C)[C@@H]3CC[C@]12C [24(OH)L3, 9β,10α-cholesta-5,7-diene-3β,24-diol]
IC50 (SARS-CoV-2 RdRP; [6]): 2500 nM | inhibition at 0.2 µM [2]: 10 to 19%

C[C@H](CCCC(C)(C)O)[C@H]1CC[C@H]2C3=CC=C4C[C@@H](O)CC[C@@]4(C)[C@@H]3CC[C@]12C [25(OH)L3, 9β,10α-cholesta-5,7-diene-3β,25-diol]
IC50 (SARS-CoV-2 RdRP; [6]): 500 nM | inhibition at 0.2 µM [2]: 10 to 19%

(3S,5Z,7E)-9,10-secocholesta-5,7,10(19)-trien-3,25-diol [25(OH)D3, reference compound]
IC50 (SARS-CoV-2 RdRP; [6]): 1300 nM | toxicity and calcemic activity [1]: calcemic | inhibition of M^pro (in words) ([2]; 100 nM): significant inhibition
